Experimental data reported in US20260048051A1, “TREATMENT OF INFLAMMATORY BOWEL DISEASE” (Atomwise Inc., priority 2024, published 2026).

What was measured:
[1] = test system: IL-6 induced pSTAT3; assay: IL-6 induced pSTAT3 assay in TF-1 cells; type: cell-based; details: Homo sapiens, read-out: Cellular selectivity (IL-6/pSTAT3)
Method: The following example describes the IL-6 induced pSTAT3 assay used to determine the cellular selectivity (IL-6/pSTAT3) of the TYK2 inhibitors.
TF-1 (ATCC®, CRL-2003™) cells were cultured in RPMI 1640 Medium, with GlutaMAX™ Supplement, HEPES for Cell Culture (Life Technologies, 72400047), 10% Fetal Bovine Serum (Life Technologies, 26400044), 2 ng/mL human recombinant GM-CSF (Life Technologies, PHC2013), 1 mM Sodium pyruvate (Life Technologies, 11360039), 1% MEM NEAA (Life Technologies, 11140-035), 1% Penicillin/Streptomycin (Life Technologies, 15140-122).
TF-1 (70×10^6) cells were starved overnight in T150 flasks (Opti-MEM™ I Reduced Serum Medium, no phenol red (Life Technologies, 11058-021), 1 mM Na pyruvate (Life Technologies, 11360039), 1% MEM NEAA (Life Technologies, 11140-035), and 1% Penicillin/Streptomycin (Life Technologies, 15140-122)) then seeded into 96-well TPP plates (150 000 cell/well) and incubated with test compounds (Final Concentration [nM]10000-0.05) for 30 minutes at 37° C. […] Stimulation was terminated by addition of lysis buffer (MSD K150SVD) and pSTAT3 detection was measured with Phospho-STAT3 (Tyr705) Kit MSD K150SVD)) according to manufacturer's instruction. Briefly, cell lysates were added to pre-blocked plates, sealed, and shake for 1 hour at room temperature. Plates were then washed and incubated with detection antibody for 1 hour at room temperature. After washing, Read Buffer was added, and plates were read on MSD instrument (Model 1300 MSD Quickplex SQ120).

[2] = target: T1, TYK2-JH2 (Homo sapiens, UniProt P29597); assay: TYK2-JH2 HTRF binding assay (ligand efficiency); details: calculated from binding-assay IC50 (Equation 1)
T1 construct: TYK JH2 enzyme mix (ChemPartner: CP20210818A-BV); purchased ChemPartner CP20210818A-BV
Method: The following example describes the TYK2-JH2 HTRF binding assay used to determine the ligand efficiency of the TYK2 inhibitors.
To calculate ligand efficiency, Equation 1 is applied: […]
in which IC50 comes from the binding assay used to determine compound potency.
TYK JH2 enzyme mix (ChemPartner: CP20210818A-BV), tracer (ChemPartner: CP-0029472-051) and mAb Anti-6HIS Tb cryptate Gold (Cisbio: Cat No. 61HI2TLA) mix were prepared in assay buffer (10 mM MgCl2, 20 mM HEPES pH 7.5, 0.01% Triton X-100, 1 mM DTT). Compounds diluted in DMSO (Final Concentrations 0.1 to 0.000005 [μM]) and enzyme mix (0.5 nM Final Concentration) were added to 384 well plates, briefly centrifuged and incubated at room temperature for 10 minutes. After incubation, tracer mix (Tracer-35 nM final concentration); (MAb Anti-6HIS Tb cryptate Gold-0.5× final)) was added, briefly centrifuged then incubate at room temperature 60 minutes. After incubation, plates were read by Envision TR-FRET (Ex340/Em495/520) protocol (PerkinElmer-Envision 2104 multilabel plate reader).

[3] = test system: GM-CSF induced pSTAT5; assay: GM-CSF induced pSTAT5 assay in CellSensor irf1-bla TF-1 cells; type: cell-based; details: GM-CSF 1 ng/mL; for IC50: Homo sapiens, read-out: Cellular selectivity (GM-CSF induced pSTAT5)
Method: The CellSensor irfl-bla TF-1 cell line (LifeTechnologies, K1657) was cultured in RPMI 1640 Medium (Invitrogen 72400-047), 10% Fetal Bovine Serum (Invitrogen, 26400044), 1 mM Sodium pyruvate (Life Technologies, 11360039), 1% MEM NEAA (Life Technologies, 11140-035), 2 ng/ml of human recombinant GM-CSF (Fisher, PHC2015), 1% Penicillin/Streptomycin (Life Technologies, 15140-122) and 5 µg/ml of Blasticidin (ThermoFisher, A1113903).
The cell line was seeded in a T75 flask at 13×10^6 cells/50 mL in starvation medium (Opti-MEM™ I Reduced Serum Medium, no phenol red (Life Technologies, 11058-021), 1 mM Na pyruvate (Life Technologies, 11360039), 1% MEM NEAA (Life Technologies, 11140-035), and 1% Penicillin/Streptomycin (Life Technologies, 15140-122)) for 16 hours at 37° C. under 5% CO2 the day before the assay.
For the assay, CellSensor irfl-bla TF-1 cells were seeded at 30 000 cells/32 μL (starvation medium)/well in a 384-well plate.
Compounds were added on the cells in 4 μL (starvation medium)/well at 10× the final concentration. They were incubated for 30 minutes at 37° C.
Human recombinant carrier-free GM-CSF (ThermoFisher, ref PHC2015) was added to the wells in 4 μL (starvation medium)/well at 10×. The final concentration was 1 ng/mL. Control wells without GM-CSF treatment were added. Plates were incubated for 5 hours at 37° C.
6× LiveBlazer-FRET substrate (Invitrogen, K1085) was added to the wells at 8 μL/well. The substrate was prepared shortly before use by mixing 6 μL of solution A and 60 μL of solution B to 934 μL of solution C. Plates were incubated for 2.5 hours at room temperature in the dark. The plates were read on an Envision (Perkin Elmer) with an excitation at a wavelength of 409 nm and two wavelengths for the emission 520 nm and 450 nm. The ratio between the […] emission was used to calculate the IC50s.
The IC50 for the inhibition of pSTAT5 was calculated with the XLfit software using the 4 Parameter Logistic Model or Sigmoidal Dose-Response Model (model 205).

[4] = Mouse plasma pharmacokinetics, PO 5 mg/kg; type: in vivo
Method: The following example describes the methods used to evaluate the pharmacokinetics of TYK2 inhibitors in vivo following dosing of a compound of the invention.
The pharmacokinetics of test compounds were evaluated in either male CD-1 mice or male C57BL/6 mice when administered by oral gavage and IV bolus injection. The animals were allowed free access to food and water before administration. The plasma samples were analyzed by LC-MS/MS and the concentration of test compound at each time point was determined by linear regression. Pharmacokinetic parameters were calculated from the plasma concentrations by non-compartmental modeling using WinNonlin 8.2.
Oral composition. To prepare a pharmaceutical composition for oral delivery, the test articles described herein were dissolved in DMSO and then mixed with necessary volume of PEG400 followed by […] in water or 50% Kolliphor HS 15 in saline to provide the final concentrations of 0.5 mg/mL or 1 mg/mL (Table 8). The resultant mixtures were suitable for oral administration.
The PK parameters measured in mouse plasma after treatment with TYK2 inhibitor compounds via PO (oral administration) at 5 mg/kg are summarized below in Tables 9-11.

[5] = Brain exposure pharmacokinetics in rats; type: in vivo; details: male Sprague Dawley rats, oral gavage 10 mg/kg
Method: The brain exposure of exemplary compounds, e.g., 1, 2, and 4 were evaluated in male Sprague Dawley rats after oral gavage administration at 10 mg/kg. The formulation was 5% DMSO+10% PEG400 in saline. Rats were fasted overnight with food returned 4 hours post-dose. CSF was collected by direct needle puncture into the cisterna magna.
For both rat and mouse studies, brain tissue was washed with 3 volumes of saline prior to homogenization. Brain tissue was homogenized with 3 volumes (v/w) of phosphate buffered saline. Plasma, brain homogenate, and CSF samples (rat only) were analyzed by LC-MS/MS and the concentration of test compound at each time point was determined by linear regression.
Pharmacokinetic parameters were calculated from the plasma, brain, and CSF concentrations by non-compartmental modeling using WinNonlin 8.2.

T1 sequence (P29597 589-875 limits assumed): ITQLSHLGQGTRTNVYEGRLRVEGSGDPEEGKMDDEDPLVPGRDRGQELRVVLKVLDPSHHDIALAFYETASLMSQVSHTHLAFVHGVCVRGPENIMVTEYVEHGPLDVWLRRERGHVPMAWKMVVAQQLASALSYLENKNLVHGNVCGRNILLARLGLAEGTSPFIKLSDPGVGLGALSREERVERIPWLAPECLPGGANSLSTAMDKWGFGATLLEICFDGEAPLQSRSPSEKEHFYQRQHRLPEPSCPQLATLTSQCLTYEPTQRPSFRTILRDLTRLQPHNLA

| SMILES | IC50 [1] | Ligand Efficiency [2] | other results |
| --- | --- | --- | --- |
| Cc1nc(Nc2cc(Nc3ncccc3S(C)(=O)=O)ncn2)ccc1[C@H](C)N1CC2(COC2)C1 (stereo in doubt) [Compound 12, N^4-(5-(1-(2-oxa-6-azaspiro[3.3]heptan-6-yl)ethyl)-6-methylpyridin-2-yl)-N^6-(3-(methylsulfonyl)pyridin-2-yl)pyrimidine-4,6-diamine] | < 4 µM | ††† (†††: >0.39) | IC50 [3]: < 4 µM; Half-life (t1/2) [4]: † (†: <1.0); Maximum plasma concentration (Cmax) [4]: ††† (†††: >1500); Total systemic exposure (AUCinf) [4]: †† (††: 1000-2000) |
| C[C@H](c1ccc(Nc2cc(Nc3ncccc3S(C)(=O)=O)ncn2)nc1)N1CC2(COC2)C1 [Compound 17, (R)—N^4-(5-(1-(2-oxa-6-azaspiro[3.3]heptan-6-yl)ethyl)pyridin-2-yl)-N^6-(3-(methylsulfonyl)pyridin-2-yl)pyrimidine-4,6-diamine] | > 10 µM | †† (††: 0.37-0.39) | Cellular selectivity (GM-CSF induced pSTAT5) [3]: †††† |
| CS(=O)(=O)c1cccnc1Nc1cc(Nc2ccc3c(n2)CCCC3N2CC3(COC3)C2)ncn1 (stereo in doubt) [Compound 5, (R)—N^4-(5-(2-oxa-6-azaspiro[3.3]heptan-6-yl)-5,6,7,8-tetrahydroquinolin-2-yl)-N^6-(3-(methylsulfonyl)pyridin-2-yl)pyrimidine-4,6-diamine] | 4 to 10 µM | †† (††: 0.37-0.39) | IC50 [3]: > 10 µM; Half-life (t1/2) [4]: ††† (†††: >1.5); Maximum plasma concentration (Cmax) [4]: ††† (†††: >1500); Total systemic exposure (AUCinf) [4]: ††† (†††: >2000) |
| CC(c1ccc(Nc2cc(Nc3ncccc3S(C)(=O)=O)ncn2)nc1C(F)(F)F)N1CC2(COC2)C1 (stereo in doubt) [Compound 11, (R)—N^4-(5-(1-(2-oxa-6-azaspiro[3.3]heptan-6-yl)ethyl)-6-(trifluoromethyl)pyridin-2-yl)-N^6-(3-(methylsulfonyl)pyridin-2-yl)pyrimidine-4,6-diamine] | < 4 µM | †† (††: 0.37-0.39) | IC50 [3]: > 10 µM; Half-life (t1/2) [4]: ††† (†††: >1.5); Maximum plasma concentration (Cmax) [4]: †† (††: 800-1500); Total systemic exposure (AUCinf) [4]: ††† (†††: >2000) |
| C[C@@H](c1ccc(Nc2cc(Nc3ncccc3S(C)(=O)=O)ncn2)nc1)N(C)C [Compound 4, (S)—N^4-(5-(1-(dimethylamino)ethyl)pyridin-2-yl)-N^6-(3-(methylsulfonyl)pyridin-2-yl) pyrimidine-4,6-diamine] |  | ††† (†††: >0.39) | Brain Kpu, u [5]: ††† (††† >0.2 u) |
| CC1(Nc2ccc(Nc3cc(Nc4ncccc4S(C)(=O)=O)ncn3)nc2)COC1 [Compound 21, N^4-(5-((3-methyloxetan-3-yl)amino)pyridin-2-yl)-N^6-(3-(methylsulfonyl)pyridin-2-yl)pyrimidine-4,6-diamine] |  | ††† (†††: >0.39) |  |
| CC(C)(c1ccc(Nc2cc(Nc3ncccc3S(C)(=O)=O)ncn2)nc1)N1CC2(CCOCC2)C1 [Compound 33, N^4-(5-(2-(7-oxa-2-azaspiro[3.5]nonan-2-yl)propan-2-yl)pyridin-2-yl)-N^6-(3-(methylsulfonyl)pyridin-2-yl)pyrimidine-4,6-diamine] |  | †† (††: 0.37-0.39) |  |
| CS(=O)(=O)c1ccccc1Nc1cc(Nc2ccc(NC3COC3)cn2)ncn1 [Compound 80, N^4-(2-(methylsulfonyl)phenyl)-N^6-(5-(oxetan-3-ylamino)pyridin-2-yl) pyrimidine-4,6-diamine] |  | † (†: < 0.37) |  |
| Cc1nc(Nc2cc(Nc3ncccc3S(C)(=O)=O)ncn2)ccc1NC1(C)COC1 [Compound 6, N^4-(6-methyl-5-((3-methyloxetan-3-yl)amino)pyridin-2-yl)-N^6-(3-(methylsulfonyl)pyridin-2-yl)pyrimidine-4,6-diamine] |  | ††† (†††: >0.39) |  |
| Cn1ccc(Nc2cc(Nc3ccccc3C(N)=O)ncn2)n1 [Compound 67, 2-((6-((1-methyl-1H-pyrazol-3-yl)amino)pyrimidin-4-yl)amino)benzamide] |  | ††† (†††: >0.39) |  |
| CS(=O)(=O)c1ccccc1Nc1cc(Nc2ccc3c(n2)CCCC3N2CC3(CCOCC3)C2)ncn1 (stereo not shown) [Compound 27, N^4-(5-(7-oxa-2-azaspiro[3.5]nonan-2-yl)-5,6,7,8-tetrahydroquinolin-2-yl)-N^6-(2-(methylsulfonyl)phenyl)pyrimidine-4,6-diamine] |  | † (†: < 0.37) |  |
| Cc1cccc(Nc2cc(Nc3ccncc3S(C)(=O)=O)ncn2)n1 [Compound 60, N^4-(6-methylpyridin-2-yl)-N^6-(3-(methylsulfonyl)pyridin-4-yl) pyrimidine-4,6-diamine] |  | ††† (†††: >0.39) |  |
| CS(=O)(=O)c1ccccc1Nc1cc(Nc2ccc(C(=O)NC3CCOC3)cn2)ncn1 (stereo not shown) [Compound 43, 6-(6-(2-(methylsulfonyl)phenylamino)pyrimidin-4-ylamino)-N-(tetrahydrofuran-3-yl)nicotinamide] |  | †† (††: 0.37-0.39) |  |
